Data as given in patent publication US11912723B2, “KRAS modulators and uses thereof” (Quanta Therapeutics, Inc., priority 2022, dated 2024).

Experiments:
[1] = system: AGS (KRAS G12D) cells, phospho-ERK; assay: pERK In Cell Western (ICW) assay (Method B); type: cell-based; settings: Homo sapiens, 3 hours
Procedure, shortened: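 AGS cells seeded at 5,000/well, grown overnight, then treated 3 h at 37 °C with ½-log 10-point dilutions (top 10 μM). Fixed cells stained for phospho-ERK, normalized to DRAQ5 DNA signal and to DMSO control; IC50 from 4-parameter variable-slope fit.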

[2] = target: T1, KRAS G12V/RAF1 (Homo sapiens, UniProt P01116, G12V); assay: Protein-protein interaction (PPI) HTRF assay KRAS G12V/RAF1; type: binding; settings: KRASG12V/RAF1
T1 construct: KRAS (1-169) proteins were expressed in E. coli at 18° C; His6-MBP (N, cleaved yes); made in house; host or cells: E. coli
T1 sequence (P01116 1-169 isoform P01116-2 G12V): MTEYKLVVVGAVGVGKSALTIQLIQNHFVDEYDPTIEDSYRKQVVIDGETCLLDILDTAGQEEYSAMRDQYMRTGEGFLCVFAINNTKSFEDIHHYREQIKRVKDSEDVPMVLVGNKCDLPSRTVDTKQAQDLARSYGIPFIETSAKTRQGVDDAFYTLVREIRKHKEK
Description: (§1) Biotinylated KRAS wt and KRAS G12DNV proteins were expressed and purified in conditions similar to those previously reported (Tran, et al., 2021) (Zhang, et al., 2020). Briefly, KRAS (1-169) proteins were expressed in E. coli at 18° C. with an upstream TEV cleavage site (ENLFYQS) followed an Avi tag sequence ([…]). KIRAS expression constructs contained both a His6 and maltose-binding protein (MBP) tags at the N-terminus for Ni-NTA column purification prior to overnight TEV cleavage and MBP column purification. The avi-tagged NRAS expression construct contained both a His6 tag and SUMO cleavage sige at the N-terminus for Ni-NTA column purification followed by His-ULP1 digestion overnight. All avi-tagged RAS proteins were dialyzed into buffer containing ATP, biotin, and BirA followed by purification over a second Ni-NTA column and then run over a size exclusion HiLoad™ 26/600 Superdex™ column in 20 mM HEPES, pH 7.5, 300 mM NaCl, 5 mM MgCl2, and 1 mM TCEP. Fractions containing the protein of interest were pooled, concentrated, and confirmed by intact mass spectrometry. To prepare ‘GTP’ loaded KRAS and NRAS, biotinylated KRAS or NRAS was nucleotide exchanged from GDP-bound protein to GppNHp-bound (Jena Biosciences, NU-401-50) protein in the presence of alkaline phosphatase and excess GppNHp as previously described and the resulting nucleotide content was confirmed by HPLC reverse phase analytical chromatography (Donohue, et al., 2019) (Tran, et al., 2021).
(§2) His-tagged RAF1 (52-131) was similarly expressed in E. coli at 18° C. overnight with an upstream TEV cleavage site. His-tagged RAF1 expression construct contained both a His6 and MBP tags at the N-terminus for Ni-NTA column purification followed by MBP-tagged TEV digestion overnight. RAF1 protein samples were further purified over a MBP column followed by a Ni-NTA column and a second MBP column. The fractions containing the protein of interest were pooled, concentrated, and further purified over a HiLoad™ 16/600 Superdex™ 75 pg size exclusion column into 20 mM HEPES, pH8.0, 200 mM NaCl, 5 mM TCEP.
(§3) When RAS proteins are in the active GTP-bound conformation, they bind the effector protein RAF1 at the N-terminus Ras-binding domain (RBD, residues 52-131) (Tran, et al., 2021). Homogenous time resolved fluorescence (HTRF) was used to monitor the interaction between wt or mutant KRAS and RAF1 or wt NRAS and RAFT. Compounds were assayed in the presence of KRAS G12D/V and RAF1 versus wt KRAS to assess activity against mutant and w.t. KRAS. Similarly, compounds were then assayed in the presence of w.t. NRAS and RAF1 to assess RAS isoform selectivity. In all assay formats, His-tagged RAF1 protein was incubated with the HTRF donor, anti-6His Tb Cryptate gold (Cisbio 61DB10RDF), and biotinylated RAS proteins were incubated with the HTRF acceptor, streptavidin-d2 (CisBio 610SADLA). The intensity of the fluorescence signal emitted is proportional to binding between the two proteins. The donor solution was prepared by mixing 16 nM His-tagged RAF1 in protein dilution buffer with 1:100 anti-6His Tb cryptate in PPI-Terbium detection buffer. 16 nM biotinylated RAS protein was diluted into protein dilution buffer (50 mM Tris-HCl pH 7.5, 150 mM NaCl, 0.1 mM MgCl2, 1 mM TCEP, 0.005% Tween20) and mixed with 1:2000 Streptavidin-d2 diluted in PPI-Terbium detection buffer (CisBio 61DB10RDF). 50× compound in DMSO was mixed with 16 nM KRAS-acceptor solution and incubated for 30 minutes at room temperature. After compound pre-incubation with KRAS, the RAF1 donor solution was added to the KRAS-acceptor solution and incubated for 1 hour at room temperature. The fluorescence signal emitted was monitored at 665 nm and 615 nm using an Envision multimode plate reader. The HTRF ratio (665/615) was calculated and normalized to 0% inhibition in the absence of compound and 100% inhibition in the presence of untagged RAF1 protein. […]

[3] = target: T2, wtNRAS/RAF1 (Homo sapiens, UniProt P01111); assay: Protein-protein interaction (PPI) HTRF assay w.t.NRAS/RAF1; type: binding
T2 construct: (1-169); His6-SUMO (N, cleaved yes); made in house; host or cells: E. coli (printed for the KRAS and RAF1 constructs; not explicitly for NRAS)
T2 sequence (P01111 1-169): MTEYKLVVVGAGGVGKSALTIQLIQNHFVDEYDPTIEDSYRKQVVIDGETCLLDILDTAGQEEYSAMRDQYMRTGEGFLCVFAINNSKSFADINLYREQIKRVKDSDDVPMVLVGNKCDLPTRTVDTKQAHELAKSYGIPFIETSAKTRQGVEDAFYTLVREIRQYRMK
Description: as §1, §2, §3

SMILES | IC50 [1] [µM] | IC50 [2] [µM] | IC50 [3] [µM]
CN(C)C(=O)c1nn2c(c1Cl)CN(c1nc(OC[C@@]34CCCN3C[C@H](F)C4)nc3c1CN(C)[C@@]1(CCc4ccccc41)C3)CCC2 [Compound 53, 3-chloro-5-[(7S)-2-[[(2R,8S)-2-fluoro-1,2,3,5,6,7-hexahydropyrrolizin-8-yl]methoxy]-6-methyl-spiro[5,8-dihydropyrido[4,3-d]pyrimidine-7,1′-indane]-4-yl]-N,N-dimethyl-4,6,7,8-tetrahydropyrazolo[1,5-a][1,4]diazepine-2-carboxamide] | 0.01 to 0.1 | 10 to 100 | > 100
CN(C)C(=O)c1nn2c(c1Cl)CN(c1nc(OC[C@@]34CCCN3C[C@H](F)C4)nc3c1CN(C)[C@@]1(CCCc4ccccc41)C3)CCC2 [Compound 64, 3-chloro-5-[(7S)-2-[[(2R,8S)-2-fluoro-1,2,3,5,6,7-hexahydropyrrolizin-8-yl]methoxy]-6-methyl-spiro[5,8-dihydropyrido[4,3-d]pyrimidine-7,1′-tetralin]-4-yl]-N,N-dimethyl-4,6,7,8-tetrahydropyrazolo[1,5-a][1,4]diazepine-2-carboxamide] | 0.01 to 0.1 | 10 to 100 | > 100
C#Cc1c(C(=O)N(C)C)nn2c1CN(c1nc(OC[C@@]34CCCN3C[C@H](F)C4)nc3c1CN(C)[C@@]1(CCCc4ccccc41)C3)CCC2 [Compound 81, 3-ethynyl-5-[(7S)-2-[[(2R,8S)-2-fluoro-1,2,3,5,6,7-hexahydropyrrolizin-8-yl]methoxy]-6-methyl-spiro[5,8-dihydropyrido[4,3-d]pyrimidine-7,1′-tetralin]-4-yl]-N,N-dimethyl-4,6,7,8-tetrahydropyrazolo[1,5-a][1,4]diazepine-2-carboxamide] | 0.01 to 0.1 | 10 to 100 | > 100
Cc1nnc(-c2nn3c(c2Cl)CN(c2nc(OC[C@@]45CCCN4C[C@H](F)C5)nc4c2CN(C)[C@@]2(CCCc5ccccc52)C4)CCC3)n1C [Compound 90, (7S)-4-[3-chloro-2-(4,5-dimethyl-1,2,4-triazol-3-yl)-4,6,7,8-tetrahydropyrazolo[1,5-a][1,4]diazepin-5-yl]-2-[[(2R,8S)-2-fluoro-1,2,3,5,6,7-hexahydropyrrolizin-8-yl]methoxy]-6-methyl-spiro[5,8-dihydropyrido[4,3-d]pyrimidine-7,1′-tetralin]] | 0.01 to 0.1 | 10 to 100 | > 100
CN(C)C(=O)c1nn2c(c1Cl)CN(c1nc(OC[C@@]34CCCN3C[C@H](F)C4)nc3c1CN(C)[C@@]1(CCc4cccc(O)c41)C3)CCC2 [Compound 96, 3-chloro-5-[(7S)-2-[[(2R,8S)-2-fluoro-1,2,3,5,6,7-hexahydropyrrolizin-8-yl]methoxy]-7′-hydroxy-6-methyl-spiro[5,8-dihydropyrido[4,3-d]pyrimidine-7,1′-indane]-4-yl]-N,N-dimethyl-4,6,7,8-tetrahydropyrazolo[1,5-a][1,4]diazepine-2-carboxamide] | 0.01 to 0.1 | 10 to 100 | > 100
CN(C)CC1(COc2nc3c(c(N4CCCn5nc(C(=O)N(C)C)c(Cl)c5C4)n2)CN(C)[C@@]2(CCCc4ccccc42)C3)CC1(F)F (stereo partly drawn) [Compound 97, 3-chloro-5-[(7S)-2-[[1-[(dimethylamino)methyl]-2,2-difluoro-cyclopropyl]methoxy]-6-methyl-spiro[5,8-dihydropyrido[4,3-d]pyrimidine-7,1′-tetralin]-4-yl]-N,N-dimethyl-4,6,7,8-tetrahydropyrazolo[1,5-a][1,4]diazepine-2-carboxamide] | 1 to 10 |  | 
CN1Cc2c(nc(OC[C@@]34CCCN3C[C@H](F)C4)nc2N2CCCn3nc(-c4nnnn4C)c(Cl)c3C2)C[C@]12CCCc1ccccc12 [Compound 99, (7S)-4-[3-chloro-2-(1-methyltetrazol-5-yl)-4,6,7,8-tetrahydropyrazolo[1,5-a][1,4]diazepin-5-yl]-2-[[(2R,8S)-2-fluoro-1,2,3,5,6,7-hexahydropyrrolizin-8-yl]methoxy]-6-methyl-spiro[5,8-dihydropyrido[4,3-d]pyrimidine-7,1′-tetralin]] | 0.1 to 1 |  | 
